Format in all cases: functional
Assay [1] relates to Candida parapsilosis. In words: Antifungal activity against Candida parapsilosis by broth microdilution method. The following applies: Lodderomyces parapsilosis. (In general: Dilution methods test growth across graded concentrations, often in twofold steps.)
The test system of assay [2] is Nannizzia gypsea. As to the kind of experiment: Antifungal activity against Microsporum gypseum by broth microdilution method.
For assay [3], the system named is Candida albicans. In words: Antifungal activity against Candida albicans ATCC Y0109 after 24 hrs by broth microdilution method.
The test system of assay [4] is Candida tropicalis. As to the kind of experiment: Antifungal activity against Candida tropicalis by broth microdilution method.
Assay [5] concerns Aspergillus fumigatus. In words: Antifungal activity against Aspergillus fumigatus by broth microdilution method.
Assay [6] concerns Fusarium. In words: Antifungal activity against Fusarium by broth microdilution method.
Assay [7] deals with Cryptococcus neoformans. In words: Antifungal activity against Cryptococcus neoformans ATCC BLS108 after 72 hrs by broth microdilution method.
Assay [8] concerns Trichophyton rubrum. As to the kind of experiment: Antifungal activity against Trichophyton rubrum by broth microdilution method.

≈ marks a conversion by molar mass, not a printed value.

For orientation: MIC80 means the lowest concentration that inhibits either 80% of growth or 80% of the strains tested, depending on the study. Low readings indicate higher susceptibility, high ones lower susceptibility. Turning to `COc1ccc(OC)c(/C=C/C(=O)Nc2ccc(N3CCN(CC(O)(Cn4cncn4)c4ccc(F)cc4F)CC3)c(F)c2)c1` (configuration not stated), the MIC80 was 1 µg/mL (≈ 1.61 µM) in assay [1]; 1 µg/mL (≈ 1.61 µM) in assay [2]; 0.0625 µg/mL (≈ 0.1 µM) in assay [3]; 0.25 µg/mL (≈ 0.402 µM) in assay [4]; greater than 64 µg/mL in assay [5]; 64 µg/mL (≈ 103 µM) in assay [6]. Further, the MIC80 was 1 µg/mL (≈ 1.61 µM) in assay [7] and 0.0625 µg/mL (≈ 0.1 µM) in assay [8].

On to `O=C(/C=C/c1ccc([N+](=O)[O-])cc1)Nc1ccc(N2CCN(CC(O)(Cn3cncn3)c3ccc(F)cc3F)CC2)cc1` (configuration not stated), for which the MIC80 in assay [1] was found to be 1 µg/mL (≈ 1.7 µM); in assay [2], 0.0625 µg/mL (≈ 0.106 µM); in assay [3], 0.0625 µg/mL (≈ 0.106 µM); in assay [4] it was 0.25 µg/mL (≈ 0.424 µM); in assay [5], 4 µg/mL (≈ 6.78 µM); in assay [6], 16 µg/mL (≈ 27.1 µM). In addition, the MIC80 in assay [7] came out at 1 µg/mL (≈ 1.7 µM); in assay [8], 0.0156 µg/mL (≈ 0.0265 µM).

Regarding `O=C(/C=C/c1ccc([N+](=O)[O-])cc1)Nc1ccc(N2CCN(CC(O)(Cn3cncn3)c3ccc(F)cc3F)CC2)c(F)c1` (configuration not stated), the MIC80 is 0.25 µg/mL (≈ 0.411 µM) in assay [1]; 0.25 µg/mL (≈ 0.411 µM) in assay [2]; 0.0156 µg/mL (≈ 0.0257 µM) in assay [3]; 0.25 µg/mL (≈ 0.411 µM) in assay [4]; greater than 64 µg/mL in assay [5]; 1 µg/mL (≈ 1.65 µM) in assay [6]. The MIC80 in assay [7] was determined as 1 µg/mL (≈ 1.65 µM); in assay [8], 0.0625 µg/mL (≈ 0.103 µM).

Take `O=C(/C=C/c1ccccc1F)Nc1ccc(N2CCN(CC(O)(Cn3cncn3)c3ccc(F)cc3F)CC2)cc1` (configuration not stated): the MIC80 is 0.0625 µg/mL (≈ 0.111 µM) in assay [1]; 0.0625 µg/mL (≈ 0.111 µM) in assay [2]; 0.0039 µg/mL (≈ 0.00693 µM) in assay [3]; 0.0156 µg/mL (≈ 0.0277 µM) in assay [4]; greater than 64 µg/mL in assay [5]; 1 µg/mL (≈ 1.78 µM) in assay [6]. The MIC80 in assay [7] was determined as 0.0625 µg/mL (≈ 0.111 µM); in assay [8] it was 0.25 µg/mL (≈ 0.444 µM).

Turning to `O=C(/C=C/c1ccc(F)cc1)Nc1ccc(N2CCN(CC(O)(Cn3cncn3)c3ccc(F)cc3F)CC2)cc1` (configuration not stated), the MIC80 in assay [1] is 0.25 µg/mL (≈ 0.444 µM); in assay [2], 0.0625 µg/mL (≈ 0.111 µM); in assay [3] it was 0.0625 µg/mL (≈ 0.111 µM); in assay [4], 0.25 µg/mL (≈ 0.444 µM); in assay [5], 0.0625 µg/mL (≈ 0.111 µM); in assay [6] it was 1 µg/mL (≈ 1.78 µM). Also, the figures for the MIC80 in assay [7] and in assay [8] were 0.25 µg/mL (≈ 0.444 µM) and 0.0039 µg/mL (≈ 0.00693 µM), respectively.

`O=C(/C=C/c1ccccc1)Nc1ccc(N2CCN(CC(O)(Cn3cncn3)c3ccc(F)cc3F)CC2)cc1` (configuration not stated): the MIC80 in assay [1] is 0.0625 µg/mL (≈ 0.115 µM); in assay [2] it was 0.25 µg/mL (≈ 0.459 µM); in assay [3], 0.0156 µg/mL (≈ 0.0286 µM); in assay [4], 0.0625 µg/mL (≈ 0.115 µM); in assay [5], 16 µg/mL (≈ 29.4 µM); in assay [6] it was 0.0625 µg/mL (≈ 0.115 µM). Also, the MIC80 is 0.25 µg/mL (≈ 0.459 µM) in assay [7] and 0.0039 µg/mL (≈ 0.00716 µM) in assay [8].

For the compound `O=C(/C=C/c1cccc(Br)c1)Nc1ccc(N2CCN(CC(O)(Cn3cncn3)c3ccc(F)cc3F)CC2)c(F)c1` (configuration not stated), the MIC80 in assay [1] was 0.25 µg/mL (≈ 0.39 µM); in assay [2], 0.25 µg/mL (≈ 0.39 µM); in assay [3], 1 µg/mL (≈ 1.56 µM); in assay [4], 0.0625 µg/mL (≈ 0.0974 µM); in assay [5] it was 4 µg/mL (≈ 6.24 µM); in assay [6] it was 1 µg/mL (≈ 1.56 µM). Also, the MIC80 in assay [7] was 0.0156 µg/mL (≈ 0.0243 µM); in assay [8], 0.25 µg/mL (≈ 0.39 µM).

Regarding `O=C(/C=C/c1ccccc1[N+](=O)[O-])Nc1ccc(N2CCN(CC(O)(Cn3cncn3)c3ccc(F)cc3F)CC2)c(F)c1` (configuration not stated), the MIC80 in assay [1] turned out to be 1 µg/mL (≈ 1.65 µM); in assay [2] it was 1 µg/mL (≈ 1.65 µM); in assay [3] it was 0.25 µg/mL (≈ 0.411 µM); in assay [4], 1 µg/mL (≈ 1.65 µM); in assay [5], 64 µg/mL (≈ 105 µM); in assay [6], 16 µg/mL (≈ 26.3 µM). Also, the MIC80 was determined as 1 µg/mL (≈ 1.65 µM) in assay [7] and 0.25 µg/mL (≈ 0.411 µM) in assay [8].

For `COc1ccc(/C=C/C(=O)Nc2ccc(N3CCN(CC(O)(Cn4cncn4)c4ccc(F)cc4F)CC3)cc2)cc1OC` (configuration not stated), the MIC80 came out at 0.0625 µg/mL (≈ 0.103 µM) in assay [1]; 0.25 µg/mL (≈ 0.413 µM) in assay [2]; 0.0156 µg/mL (≈ 0.0258 µM) in assay [3]; 0.0625 µg/mL (≈ 0.103 µM) in assay [4]; 4 µg/mL (≈ 6.62 µM) in assay [5]; 1 µg/mL (≈ 1.65 µM) in assay [6]. For the same compound, the MIC80 in assay [7] and in assay [8] was 0.25 µg/mL (≈ 0.413 µM) in each case.

These data come from ChEMBL document CHEMBL1641470, “New azoles with antifungal activity: Design, synthesis, and molecular docking” (2011).
